Test results: ChEMBL document CHEMBL1157904, “Discovery of pyrazolthiazoles as novel and potent inhibitors of bacterial gyrase” (Bioorg Med Chem Lett, 2010)
In brackets after ≈: the same amount, converted by molar mass. Activity calls are given as the source filed them. The rule behind the calls is not given here.

Experiments:
Escherichia coli [1] = assay: Antibacterial activity against wild type Escherichia coli; type: functional
Streptococcus pneumoniae [2] = assay: Antibacterial activity against wild type Streptococcus pneumoniae; type: functional
[3] = Inhibition of ATPase activity of Escherichia coli DNA gyrase B
Staphylococcus aureus [4] = assay: Antibacterial activity against wild type Staphylococcus aureus; type: functional
[5] = Selectivity ratio of Ki for Escherichia coli DNA gyraseB to Ki for Staphylococcus aureus DNA gyraseB
[6] = (§1) Inhibition of ATPase activity of Staphylococcus aureus DNA gyrase B
Escherichia coli [7] = assay: Antibacterial activity against tol C pump knockout Escherichia coli CAG12184; type: functional
Streptococcus pneumoniae [8] = assay: Antibacterial activity against Streptococcus pneumoniae ATCC 10015; type: functional
Staphylococcus aureus [9] = assay: as §1
Staphylococcus aureus [10] = assay: Antibacterial activity against Staphylococcus aureus ATCC 29213; type: functional

| MIC (Escherichia coli [7]) | SMILES | Ki [3] | also measured |
| --- | --- | --- | --- |
|  | CCOC(=O)c1cc(-c2sc(-c3ccccc3)nc2N2CCOCC2)n[nH]1 | 630 nM | MIC (Escherichia coli [1]): > 64 µg/mL; MIC (Streptococcus pneumoniae [2]): > 64 µg/mL; MIC (Staphylococcus aureus [4]): > 64 µg/mL |
|  | CCc1cc(-c2sc(-c3cccs3)nc2C)n[nH]1 | 4800 nM |  |
| 1 µg/mL (≈ 2.37 µM) | C#CCOC(=O)NCc1cc(-c2sc(-c3cccnc3)nc2N2CCCCC2)[nH]n1 | 11 nM | Activity (Escherichia coli [1]): inactive; Ratio Ki [5]: 10; Ki [6]: 240 nM |
| 16 µg/mL (≈ 41.9 µM) | CCNC(=O)c1cc(-c2sc(-c3cccnc3)nc2C2CCCCC2)n[nH]1 | 62 nM |  |
|  | CCOC(=O)c1cc(-c2sc(-c3cccs3)nc2C)n[nH]1 | 2600 nM |  |
| > 64 µg/mL | CC#CCOC(=O)NCc1cc(-c2sc(-c3cccnc3)nc2C2CCCCC2)n[nH]1 | < 4 nM | Activity (Escherichia coli [1]): inactive; Ki [6]: 69 nM |
|  | CCCc1nc(-c2ccccc2)sc1-c1cc(C(=O)OCC)[nH]n1 | 800 nM |  |
| 48 µg/mL (≈ 125 µM) | CCNC(=O)c1cc(-c2sc(-c3cccnc3)nc2[C@@H]2CCCCN2)n[nH]1 | 40 nM | MIC (Streptococcus pneumoniae [8]): 1.5 µg/mL (≈ 3.92 µM); inhibition (Staphylococcus aureus [9]): Active; MIC (Staphylococcus aureus [10]): 32 µg/mL (≈ 83.7 µM) |
| 8 µg/mL (≈ 20.1 µM) | CC#CCOC(=O)NCc1cc(-c2sc(-c3cccnc3)nc2COC)n[nH]1 | 14 nM | Activity (Escherichia coli [1]): inactive; Ki [6]: 1100 nM |
|  | CCOC(=O)c1cc(-c2sc(-c3cccnc3)nc2COC)n[nH]1 | 280 nM | MIC (Escherichia coli [1]): > 64 µg/mL; MIC (Streptococcus pneumoniae [2]): > 64 µg/mL; MIC (Staphylococcus aureus [4]): > 64 µg/mL |
|  | CCOC(=O)c1cc(-c2sc(-c3cccnc3)nc2N2CCC(C)CC2)n[nH]1 | 1050 nM | MIC (Escherichia coli [1]): > 64 µg/mL; MIC (Streptococcus pneumoniae [2]): > 64 µg/mL; MIC (Staphylococcus aureus [4]): > 64 µg/mL |
| 0.5 µg/mL (≈ 1.15 µM) | CC#CCOC(=O)NCc1cc(-c2sc(-c3cccnc3)nc2N2CCCCC2)n[nH]1 | < 4 nM | Activity (Escherichia coli [1]): inactive; Ki [6]: 140 nM |
|  | CCOC(=O)c1cc(-c2sc(-c3ccccc3)nc2-c2ccccc2)n[nH]1 | 140 nM |  |
| 4 µg/mL (≈ 10.7 µM) | CCNC(=O)c1cc(-c2sc(-c3cccnc3)nc2-c2ccccc2)n[nH]1 | 45 nM | MIC (Streptococcus pneumoniae [8]): 2 µg/mL (≈ 5.33 µM); inhibition (Staphylococcus aureus [9]): Active; MIC (Staphylococcus aureus [10]): 8 µg/mL (≈ 21.3 µM) |
|  | CSc1cc(-c2sc(-c3cccs3)nc2C)[nH]n1 | 2900 nM |  |
| 8 µg/mL (≈ 19.5 µM) | CCNC(=O)c1cc(-c2sc(-c3cccnc3)nc2-c2ccc(Cl)cc2)n[nH]1 | 47 nM | MIC (Streptococcus pneumoniae [8]): 4 µg/mL (≈ 9.76 µM); MIC (Staphylococcus aureus [10]): 8 µg/mL (≈ 19.5 µM) |
| > 64 µg/mL | CCNC(=O)c1cc(-c2sc(-c3cccnc3)nc2C)n[nH]1 | 350 nM | MIC (Streptococcus pneumoniae [8]): > 64 µg/mL; MIC (Staphylococcus aureus [10]): > 64 µg/mL |
| > 64 µg/mL | COC(=O)NCc1cc(-c2sc(-c3ccccc3)nc2N2CCC(O)CC2)[nH]n1 | 1080 nM | Activity (Escherichia coli [1]): inactive |
|  | CCOC(=O)c1cc(-c2sc(-c3cccnc3)nc2C2CCCCC2)n[nH]1 | 120 nM |  |
|  | CCOC(=O)c1cc(-c2sc(-c3cccnc3)nc2-c2ccccc2)n[nH]1 | 70 nM |  |
| 32 µg/mL (≈ 86.8 µM) | CCNC(=O)c1cc(-c2sc(-c3cccnc3)nc2[C@@H]2CCCN2)n[nH]1 | 82 nM |  |
| > 64 µg/mL | COC(=O)NCc1cc(-c2sc(-c3cccnc3)nc2N2CCCCC2)n[nH]1 | 56 nM | Activity (Escherichia coli [1]): inactive; Ki [6]: 300 nM |
| > 64 µg/mL | CCNC(=O)c1cc(-c2sc(-c3cccnc3)nc2[C@H]2CCCCN2)n[nH]1 | 3400 nM | MIC (Streptococcus pneumoniae [8]): > 64 µg/mL; inhibition (Staphylococcus aureus [9]): Active; MIC (Staphylococcus aureus [10]): > 64 µg/mL |
|  | CCOC(=O)c1cc(-c2sc(-c3cccnc3)nc2CO)n[nH]1 | 670 nM | MIC (Escherichia coli [1]): > 64 µg/mL; MIC (Streptococcus pneumoniae [2]): > 64 µg/mL; MIC (Staphylococcus aureus [4]): > 64 µg/mL |
|  | CSc1cc(-c2sc(-c3ccccc3)nc2C)n[nH]1 | 3500 nM |  |
|  | CCOC(=O)c1cc(-c2sc(-c3ccccc3)nc2C)n[nH]1 | 1700 nM |  |
|  | CCOC(=O)c1cc(-c2sc(-c3cccnc3)nc2C)n[nH]1 | 330 nM |  |
|  | CCOC(=O)c1cc(-c2sc(-c3cccnc3)nc2C2CC2)n[nH]1 | 240 nM |  |
|  | CCOC(=O)c1cc(-c2sc(-c3ccccc3)nc2N2CCCCC2)n[nH]1 | 210 nM | MIC (Escherichia coli [1]): > 64 µg/mL; MIC (Streptococcus pneumoniae [2]): > 64 µg/mL; MIC (Staphylococcus aureus [4]): > 64 µg/mL |
| 32 µg/mL (≈ 83.7 µM) | CCNC(=O)c1cc(-c2sc(-c3cccnc3)nc2N2CCCCC2)n[nH]1 | 90 nM |  |
